Laboratory results taken from ChEMBL document CHEMBL1201862, “PubChem BioAssay data set” (2004).
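All cell lines were grown in 96-well plates and treated with compound for 48 hours. GI50: concentration for 50% inhibition of growth.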 Calls of active or inactive are those of the source. Cut-off read from the data, not from the text of the source: active = GI50 up to about 1.1 µM and inactive = higher.

Legend:
Experiment in all cases: NCI tumour cell line growth inhibition, 48 h
786-0 = test system: 786-0
A498 = test system: A498
A549 = test system: A549
ACHN = test system: ACHN
CCRF-CEM = test system: CCRF-CEM
COLO 205 = test system: COLO 205
DU-145 = test system: DU-145
EKVX = test system: EKVX
HCC 2998 = test system: HCC 2998
HCT-116 = test system: HCT-116
HCT-15 = test system: HCT-15
HL-60 = test system: HL-60
HOP-62 = test system: HOP-62
HOP-92 = test system: HOP-92
HT-29 = test system: HT-29
Hs-578T = test system: Hs-578T
IGROV-1 = test system: IGROV-1
K562 = test system: K562
KM12 = test system: KM12
LOX IMVI = test system: LOX IMVI
M14 = test system: M14
MCF7 = test system: MCF7
MDA-MB-231 = test system: MDA-MB-231
MDA-MB-435 = test system: MDA-MB-435
MDA-N = test system: MDA-N
MOLT-4 = test system: MOLT-4
Malme-3M = test system: Malme-3M
NCI-H226 = test system: NCI-H226
NCI-H23 = test system: NCI-H23
NCI-H460 = test system: NCI-H460
NCI-H522 = test system: NCI-H522
NCI/ADR-RES = test system: NCI/ADR-RES
OVCAR-3 = test system: OVCAR-3
OVCAR-5 = test system: OVCAR-5
OVCAR-8 = test system: OVCAR-8
PC-3 = test system: PC-3
RPMI-8226 = test system: RPMI-8226
RXF 393 = test system: RXF 393
SF-268 = test system: SF-268
SF-295 = test system: SF-295
SF-539 = test system: SF-539
SK-MEL-28 = test system: SK-MEL-28
SK-MEL-5 = test system: SK-MEL-5
SN12C = test system: SN12C
SNB-19 = test system: SNB-19
SNB-75 = test system: SNB-75
SR = test system: SR
SW-620 = test system: SW-620
T47D = test system: T47D
U-251 = test system: U-251
UACC-257 = test system: UACC-257
UO-31 = test system: UO-31
CAKI-1 = test system: CAKI-1
OVCAR-4 = test system: OVCAR-4
SK-MEL-2 = test system: SK-MEL-2
SK-OV-3 = test system: SK-OV-3
TK-10 = test system: TK-10
UACC-62 = test system: UACC-62

SMILES: COC(=O)C1=Cc2cc(OC)c(O)cc2[C@@H](c2ccc(O)c(OC)c2)[C@@H]1C(=O)OC
- GI50 (786-0): > 100 µM (inactive)
- GI50 (A498): > 100 µM (inactive)
- GI50 (A549): > 100 µM (inactive)
- GI50 (ACHN): > 100 µM (inactive)
- GI50 (CCRF-CEM): > 100 µM (inactive)
- GI50 (COLO 205): > 100 µM (inactive)
- GI50 (DU-145): > 100 µM (inactive)
- GI50 (EKVX): > 100 µM (inactive)
- GI50 (HCC 2998): > 100 µM (inactive)
- GI50 (HCT-116): > 100 µM (inactive)
- GI50 (HCT-15): > 100 µM
- GI50 (HL-60): > 100 µM (inactive)
- GI50 (HOP-62): > 100 µM (inactive)
- GI50 (HOP-92): 53.7 µM (inactive)
- GI50 (HT-29): > 100 µM (inactive)
- GI50 (Hs-578T): 78.9 µM (inactive)
- GI50 (IGROV-1): > 100 µM (inactive)
- GI50 (K562): 57.3 µM (inactive)
- GI50 (KM12): 37.6 µM (inactive)
- GI50 (LOX IMVI): > 100 µM (inactive)
- GI50 (M14): > 100 µM (inactive)
- GI50 (MCF7): > 100 µM (inactive)
- GI50 (MDA-MB-231): 39.2 µM (inactive)
- GI50 (MDA-MB-435): 45.5 µM (inactive)
- GI50 (MDA-N): 36.9 µM (inactive)
- GI50 (MOLT-4): > 100 µM (inactive)
- GI50 (Malme-3M): > 100 µM (inactive)
- GI50 (NCI-H226): > 100 µM (inactive)
- GI50 (NCI-H23): > 100 µM (inactive)
- GI50 (NCI-H460): > 100 µM (inactive)
- GI50 (NCI-H522): > 100 µM (inactive)
- GI50 (NCI/ADR-RES): > 100 µM (inactive)
- GI50 (OVCAR-3): > 100 µM (inactive)
- GI50 (OVCAR-5): > 100 µM (inactive)
- GI50 (OVCAR-8): > 100 µM (inactive)
- GI50 (PC-3): > 100 µM (inactive)
- GI50 (RPMI-8226): > 100 µM (inactive)
- GI50 (RXF 393): 61.7 µM (inactive)
- GI50 (SF-268): > 100 µM (inactive)
- GI50 (SF-295): > 100 µM (inactive)
- GI50 (SF-539): > 100 µM (inactive)
- GI50 (SK-MEL-28): > 100 µM (inactive)
- GI50 (SK-MEL-5): 43.9 µM (inactive)
- GI50 (SN12C): > 100 µM (inactive)
- GI50 (SNB-19): > 100 µM (inactive)
- GI50 (SNB-75): 58.1 µM (inactive)
- GI50 (SR): > 100 µM (inactive)
- GI50 (SW-620): > 100 µM (inactive)
- GI50 (T47D): 60.5 µM (inactive)
- GI50 (U-251): > 100 µM (inactive)
- GI50 (UACC-257): > 100 µM (inactive)
- GI50 (UO-31): 10.5 µM (inactive)

SMILES: COP(=O)(OC)/C(=C\C1=CN(C(c2ccccc2)(c2ccccc2)c2ccccc2)CN1)NC=O
- GI50 (A498): 17.9 µM (inactive)
- GI50 (A549): 14.2 µM (inactive)
- GI50 (ACHN): 15.1 µM (inactive)
- GI50 (CAKI-1): 16.6 µM (inactive)
- GI50 (COLO 205): 17.3 µM (inactive)
- GI50 (DU-145): 20.2 µM (inactive)
- GI50 (HCC 2998): 21.1 µM (inactive)
- GI50 (HCT-116): 15.6 µM (inactive)
- GI50 (HCT-15): 16.6 µM
- GI50 (HL-60): 18.9 µM (inactive)
- GI50 (HOP-62): 16.5 µM (inactive)
- GI50 (HOP-92): 10.3 µM (inactive)
- GI50 (HT-29): 15 µM (inactive)
- GI50 (Hs-578T): 23.3 µM (inactive)
- GI50 (IGROV-1): 20.6 µM (inactive)
- GI50 (K562): 25.3 µM (inactive)
- GI50 (LOX IMVI): 12.8 µM (inactive)
- GI50 (M14): 19.9 µM (inactive)
- GI50 (MDA-MB-231): 16.8 µM (inactive)
- GI50 (MDA-MB-435): 11.1 µM (inactive)
- GI50 (MDA-N): 15.1 µM (inactive)
- GI50 (MOLT-4): 12.8 µM (inactive)
- GI50 (NCI-H226): 21.2 µM (inactive)
- GI50 (NCI-H23): 18.2 µM (inactive)
- GI50 (NCI-H460): 14 µM (inactive)
- GI50 (NCI-H522): 17 µM (inactive)
- GI50 (NCI/ADR-RES): 15.8 µM (inactive)
- GI50 (OVCAR-3): 16.1 µM (inactive)
- GI50 (OVCAR-4): 16.3 µM (inactive)
- GI50 (OVCAR-5): 17.8 µM (inactive)
- GI50 (OVCAR-8): 21.3 µM (inactive)
- GI50 (PC-3): 6.44 µM (inactive)
- GI50 (RPMI-8226): 15.7 µM (inactive)
- GI50 (SF-295): 16.4 µM (inactive)
- GI50 (SK-MEL-28): 17.7 µM (inactive)
- GI50 (SK-MEL-2): 15.9 µM (inactive)
- GI50 (SK-MEL-5): 15.9 µM (inactive)
- GI50 (SK-OV-3): 15.9 µM (inactive)
- GI50 (SN12C): 18.3 µM (inactive)
- GI50 (SNB-19): 20.1 µM (inactive)
- GI50 (SNB-75): 20.2 µM (inactive)
- GI50 (SR): 14.2 µM (inactive)
- GI50 (SW-620): 20.4 µM (inactive)
- GI50 (T47D): 17.6 µM (inactive)
- GI50 (TK-10): 21.2 µM (inactive)
- GI50 (U-251): 16.3 µM (inactive)
- GI50 (UACC-257): 18.9 µM (inactive)
- GI50 (UO-31): 15 µM (inactive)

SMILES: C=C1C(=O)O[C@H]2C(=O)[C@H](C)CCC[C@@](C)(O)/C=C\C[C@@]3(C)O[C@@H]3C[C@@H]12
- GI50 (786-0): 12.3 µM (inactive)
- GI50 (A498): 16.1 µM (inactive)
- GI50 (A549): 19 µM (inactive)
- GI50 (ACHN): 8.02 µM (inactive)
- GI50 (CAKI-1): 12.9 µM (inactive)
- GI50 (CCRF-CEM): 2.67 µM (inactive)
- GI50 (COLO 205): 16.2 µM (inactive)
- GI50 (DU-145): 14.5 µM (inactive)
- GI50 (HCT-116): 7.29 µM (inactive)
- GI50 (HCT-15): 11.5 µM
- GI50 (HOP-92): 10.3 µM (inactive)
- GI50 (HT-29): 14.8 µM (inactive)
- GI50 (Hs-578T): 27 µM (inactive)
- GI50 (IGROV-1): 20.3 µM (inactive)
- GI50 (KM12): 22.2 µM (inactive)
- GI50 (LOX IMVI): 15.8 µM (inactive)
- GI50 (M14): 11.3 µM (inactive)
- GI50 (MCF7): 18.7 µM (inactive)
- GI50 (MDA-MB-231): 21.7 µM (inactive)
- GI50 (MDA-MB-435): 18.5 µM (inactive)
- GI50 (MDA-N): 17.9 µM (inactive)
- GI50 (MOLT-4): < 0.01 µM (active)
- GI50 (NCI-H226): 82.2 µM (inactive)
- GI50 (NCI-H23): 24.5 µM (inactive)
- GI50 (NCI-H460): 26.5 µM (inactive)
- GI50 (NCI-H522): 2.88 µM (inactive)
- GI50 (NCI/ADR-RES): 39.4 µM (inactive)
- GI50 (OVCAR-3): 11.2 µM (inactive)
- GI50 (OVCAR-5): 1.68 µM (inactive)
- GI50 (OVCAR-8): 19.9 µM (inactive)
- GI50 (PC-3): 17 µM (inactive)
- GI50 (RPMI-8226): 17 µM (inactive)
- GI50 (SF-268): 23.3 µM (inactive)
- GI50 (SF-295): 5.28 µM (inactive)
- GI50 (SF-539): 19.3 µM (inactive)
- GI50 (SK-MEL-2): 19.5 µM (inactive)
- GI50 (SK-MEL-5): 15.2 µM (inactive)
- GI50 (SK-OV-3): > 100 µM (inactive)
- GI50 (SN12C): 17.1 µM (inactive)
- GI50 (SNB-19): 35.8 µM (inactive)
- GI50 (SW-620): 8 µM (inactive)
- GI50 (T47D): 23.7 µM (inactive)
- GI50 (TK-10): 4.19 µM (inactive)
- GI50 (U-251): 18.3 µM (inactive)
- GI50 (UACC-257): 14.1 µM (inactive)
- GI50 (UACC-62): 18.4 µM (inactive)
- GI50 (UO-31): 13.5 µM (inactive)
